Values of other authors in patent US20170173059A1, “Novel Combination of Naturally Occurring Compounds to Assist With Suspected Mycobacterial Infections Related to Autoimmune Conditions” (priority 2015, published 2017).
Entries after “also recorded” stand apart in the source; their conditions may differ. Like-named read-outs stand apart in the source and are kept apart here.

Assays:
MAP = conditions: bovine and human MAP strains, radiometric culture
[1] = test system: patients with inflammatory bowel disease; conditions: Boswellia group versus sulfasalazine control group
[2] = test system: Mycobacterium avium subspecies paratuberculosis (MAP); conditions: selected strains of MAP
[3] = material data safety sheets / classification
M. avium = conditions: radiometric culture
M.Tb = conditions: radiometric culture
5-lipoxygenase = biological target: T1, 5-lipoxygenase (Homo sapiens, UniProt P09917)
T1 sequence (P09917 1-674): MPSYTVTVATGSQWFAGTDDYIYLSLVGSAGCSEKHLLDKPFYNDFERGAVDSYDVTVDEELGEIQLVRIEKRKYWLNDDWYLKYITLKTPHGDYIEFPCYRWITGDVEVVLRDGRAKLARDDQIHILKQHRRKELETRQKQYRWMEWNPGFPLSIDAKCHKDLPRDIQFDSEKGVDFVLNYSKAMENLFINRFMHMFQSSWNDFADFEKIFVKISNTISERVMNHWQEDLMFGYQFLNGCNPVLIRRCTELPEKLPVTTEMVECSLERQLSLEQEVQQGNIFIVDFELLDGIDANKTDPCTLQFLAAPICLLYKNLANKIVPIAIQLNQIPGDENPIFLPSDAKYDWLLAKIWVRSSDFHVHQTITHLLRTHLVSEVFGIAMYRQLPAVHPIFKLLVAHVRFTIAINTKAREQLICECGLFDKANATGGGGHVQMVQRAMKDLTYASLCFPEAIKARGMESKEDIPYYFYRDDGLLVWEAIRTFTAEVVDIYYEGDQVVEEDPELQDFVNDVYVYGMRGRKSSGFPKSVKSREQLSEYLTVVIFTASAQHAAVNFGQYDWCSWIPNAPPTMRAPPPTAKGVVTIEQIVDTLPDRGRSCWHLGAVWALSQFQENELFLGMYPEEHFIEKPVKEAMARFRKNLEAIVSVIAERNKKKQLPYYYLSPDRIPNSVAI

[4] = test system: multidrug resistance pumps (MDR pumps)

Vitamin A
inhibition of MAP strains in vitro (MAP): in vitro inhibition | inhibition of MAP strains in vitro (MAP; listed as vitamin A): found to inhibit

C=C1CC[C@H](O)C/C1=C/C=C1\CCC[C@]2(C)[C@@H]([C@H](C)CCCC(C)C)CC[C@@H]12 [Vitamin D3, cholecalciferol]
anti-neoplastic activity in colon tissue (colon tissue): specific anti-neoplastic activity | anti-neoplastic activity in colon tissue (colon tissue; listed as D3): protect against neoplastic development | inhibition of MAP strains in vitro (MAP): shown inhibition

CC1=C(/C=C/C(C)=C/C=C/C(C)=C/C=C/C=C(C)/C=C/C=C(C)/C=C/C2=C(C)CCCC2(C)C)C(C)(C)CCC1 [β carotene]
inhibition of MAP strains in vitro (MAP): inhibitory effects

CC[C@@]1([C@@H]2O[C@@H]([C@H]3O[C@@](O)(CO)[C@H](C)C[C@@H]3C)C[C@@H]2C)CC[C@H]([C@]2(C)CC[C@]3(C[C@H](O)[C@@H](C)[C@@H]([C@@H](C)[C@@H](OC)[C@H](C)C(=O)O)O3)O2)O1 [Monensin]
inhibition of MAP strains in vitro (MAP): displayed inhibition of MAP

O=C(O)c1cc(/N=N/c2ccc(S(=O)(=O)Nc3ccccn3)cc2)ccc1O [sulfasalazine]
remission rates [1]: 75%

CC1=C(/C=C/C(C)=C/C=C/C(C)=C\C(=O)O)C(C)(C)CCC1 [13 cis-retinoic acid]
inhibition of MAP strains in vitro (MAP): inhibitory effects

O=CC=Cc1ccccc1 [Cinnamaldehyde]
inhibition of MAP in vitro [2]: shown to inhibit | safety listing (GRAS) [3]: GRAS

O=C/C=C/c1ccccc1 [Trans-cinnamaldehyde]
inhibition of MAP in vitro [2]: shown to inhibit | safety listing (GRAS) [3]: GRAS

CC1(C)S[C@@H]2[C@H](NC(=O)[C@H](N)c3ccc(O)cc3)C(=O)N2[C@H]1C(=O)O [Amoxicillin]
action against the family of mycobacteria (family of mycobacteria): little to no action

CC1=C(/C=C/C(C)=C/C=C/C(C)=C/CO)C(C)(C)CCC1 [Retinol, (2E,4E,6E,8E)-3,7-Dimethyl-9-(2,6,6-trimethyl-cyclohex-1-enyl)-nona-2,4,6,8-tetraen-1-ol]
inhibition of M. avium (M. avium): strong inhibitory effect | inhibition of MAP strains in vitro (MAP): strong inhibitory effect | inhibition of M.Tb (M.Tb): strong inhibitory effect

Cc1ncc([N+](=O)[O-])n1CCO [Metronidazole]
action against the family of mycobacteria (family of mycobacteria): little to no action

CC(=O)OC/C=C(C)/C=C/C=C(C)/C=C/C1=C(C)CCCC1(C)C [retinyl acetate]
inhibition of MAP strains in vitro (MAP): inhibitory effects; also recorded: highest inhibition of the group

CC(=O)O[C@@H]1CC[C@@]2(C)[C@@H](CC[C@]3(C)[C@@H]2C(=O)C=C2[C@@H]4[C@@H](C)[C@H](C)CC[C@]4(C)CC[C@]23C)[C@@]1(C)C(=O)O [acetyl-11-keto-beta-boswellic acid]
effect on 5-lipoxygenase (5-lipoxygenase): influenced

COc1cc(C2Oc3cc(-c4cc(=O)c5c(O)cc(O)cc5o4)ccc3OC2CO)cc(OC)c1O (stereo not drawn) [Example 5-MHC, 5-methoxyhydnocarpin]
multi-drug resistance pump inhibition [4]: multi-drug resistance pump inhibitor
